Assay results published in patent publication US10774094B2, “Crystal forms and salt forms of 7h-pyrrolo[2,3-d]pyrimidine compounds and preparation method thereof” (Wuxi Fortune Pharmaceutical Co., Ltd, priority 2016, dated 2020).
One block for each compound: values may come before it.

How the values were obtained:
Recombinant human JAK2 = molecular target: T1, Recombinant human JAK2 (Homo sapiens, UniProt O60674); assay: In-vitro activity test of JAK2 kinase (LANCE Ultra); assay type: biochemical
T1 construct: purchased Life technology
T1 sequence (O60674 whole entry): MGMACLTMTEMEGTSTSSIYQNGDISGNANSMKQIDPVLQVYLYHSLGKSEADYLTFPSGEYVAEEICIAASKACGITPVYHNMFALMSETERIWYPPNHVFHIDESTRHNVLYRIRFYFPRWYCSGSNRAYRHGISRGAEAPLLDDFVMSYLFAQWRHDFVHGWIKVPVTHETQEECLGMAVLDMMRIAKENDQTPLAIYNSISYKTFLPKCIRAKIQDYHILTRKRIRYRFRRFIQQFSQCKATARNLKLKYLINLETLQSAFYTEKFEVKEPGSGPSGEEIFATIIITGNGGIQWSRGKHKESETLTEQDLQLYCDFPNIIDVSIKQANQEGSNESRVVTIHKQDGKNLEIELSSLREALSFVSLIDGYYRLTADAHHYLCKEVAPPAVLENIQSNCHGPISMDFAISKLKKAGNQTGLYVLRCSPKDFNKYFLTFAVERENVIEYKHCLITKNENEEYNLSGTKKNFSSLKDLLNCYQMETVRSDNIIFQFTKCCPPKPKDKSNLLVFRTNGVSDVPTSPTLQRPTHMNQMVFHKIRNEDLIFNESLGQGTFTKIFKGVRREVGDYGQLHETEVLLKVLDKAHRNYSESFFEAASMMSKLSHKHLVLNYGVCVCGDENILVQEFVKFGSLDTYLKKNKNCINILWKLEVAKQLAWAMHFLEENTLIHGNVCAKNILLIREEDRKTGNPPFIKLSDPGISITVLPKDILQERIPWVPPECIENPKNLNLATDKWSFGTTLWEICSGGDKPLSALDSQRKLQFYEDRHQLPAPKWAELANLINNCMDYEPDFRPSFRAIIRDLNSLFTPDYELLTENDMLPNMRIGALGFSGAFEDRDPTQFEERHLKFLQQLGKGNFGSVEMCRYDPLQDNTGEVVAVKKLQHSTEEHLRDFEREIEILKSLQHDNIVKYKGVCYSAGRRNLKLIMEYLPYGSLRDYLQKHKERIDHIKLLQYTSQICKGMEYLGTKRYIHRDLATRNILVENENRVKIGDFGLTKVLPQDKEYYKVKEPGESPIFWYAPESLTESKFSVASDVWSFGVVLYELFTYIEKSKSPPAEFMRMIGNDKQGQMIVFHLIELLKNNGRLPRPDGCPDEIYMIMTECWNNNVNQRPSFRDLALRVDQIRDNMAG
Description: (§1) Recombinant human JAK1, JAK2, and JAK3 […] were purchased from Life technology. LANCE Ultra ULight™-JAK-1 (Tyr1023) peptide and LANCE Eu-W1024 Anti-phosphotyrosine (PT66) both were purchased from PerkinElmer. The plates were read using a multiplex enzyme reader Envision (PerkinElmer).
(§2) The test compounds were subjected to 3-fold concentration gradient dilution to afford 11 final concentrations ranging from 10 uM to 0.17 nM; two wells were formed for each concentration; and the content of DMSO in the detection reaction was 1%.
(§3) 0.02 nM of JAK2 protein kinase, 50 nM of LANCE Ultra ULight™-JAK-1 (Tyr1023) peptide, 12 uM of ATP, 50 mM of HEPES (pH 7.5), 10 mM of MgCl2, 1 mM of EGTA, 2 mM of DTT, and 0.01% of BRIJ-35 were included. The assay plate was a White Proxiplate 384-Plus plate (PerkinElmer). The reaction was performed at room temperature for 60 minutes; and the reaction system was 10 ul.
(§4) 10 ul of the detection reagent was added to a reaction plate, wherein the final concentration of LANCE Eu-W1024 Anti-phosphotyrosine (PT66) was 2 nM, and the final concentration of EDTA was 10 mM. The reagents were incubated for 60 minutes at room temperature; and the plate was read with Envision instrument.
The reading was converted to an inhibition rate by the following formula: (%)=(Min−Ratio)/(Max−Min)*100%. IC50 data were measured by 4-parameter curve fitting (Model 205 in XLFIT5, iDBS). […]

Recombinant human JAK1 = molecular target: T2, Recombinant human JAK1 (Homo sapiens, UniProt P23458); assay: In-vitro activity test of JAK1 kinase (LANCE Ultra); assay type: biochemical
T2 construct: purchased Life technology
T2 sequence (P23458 whole entry): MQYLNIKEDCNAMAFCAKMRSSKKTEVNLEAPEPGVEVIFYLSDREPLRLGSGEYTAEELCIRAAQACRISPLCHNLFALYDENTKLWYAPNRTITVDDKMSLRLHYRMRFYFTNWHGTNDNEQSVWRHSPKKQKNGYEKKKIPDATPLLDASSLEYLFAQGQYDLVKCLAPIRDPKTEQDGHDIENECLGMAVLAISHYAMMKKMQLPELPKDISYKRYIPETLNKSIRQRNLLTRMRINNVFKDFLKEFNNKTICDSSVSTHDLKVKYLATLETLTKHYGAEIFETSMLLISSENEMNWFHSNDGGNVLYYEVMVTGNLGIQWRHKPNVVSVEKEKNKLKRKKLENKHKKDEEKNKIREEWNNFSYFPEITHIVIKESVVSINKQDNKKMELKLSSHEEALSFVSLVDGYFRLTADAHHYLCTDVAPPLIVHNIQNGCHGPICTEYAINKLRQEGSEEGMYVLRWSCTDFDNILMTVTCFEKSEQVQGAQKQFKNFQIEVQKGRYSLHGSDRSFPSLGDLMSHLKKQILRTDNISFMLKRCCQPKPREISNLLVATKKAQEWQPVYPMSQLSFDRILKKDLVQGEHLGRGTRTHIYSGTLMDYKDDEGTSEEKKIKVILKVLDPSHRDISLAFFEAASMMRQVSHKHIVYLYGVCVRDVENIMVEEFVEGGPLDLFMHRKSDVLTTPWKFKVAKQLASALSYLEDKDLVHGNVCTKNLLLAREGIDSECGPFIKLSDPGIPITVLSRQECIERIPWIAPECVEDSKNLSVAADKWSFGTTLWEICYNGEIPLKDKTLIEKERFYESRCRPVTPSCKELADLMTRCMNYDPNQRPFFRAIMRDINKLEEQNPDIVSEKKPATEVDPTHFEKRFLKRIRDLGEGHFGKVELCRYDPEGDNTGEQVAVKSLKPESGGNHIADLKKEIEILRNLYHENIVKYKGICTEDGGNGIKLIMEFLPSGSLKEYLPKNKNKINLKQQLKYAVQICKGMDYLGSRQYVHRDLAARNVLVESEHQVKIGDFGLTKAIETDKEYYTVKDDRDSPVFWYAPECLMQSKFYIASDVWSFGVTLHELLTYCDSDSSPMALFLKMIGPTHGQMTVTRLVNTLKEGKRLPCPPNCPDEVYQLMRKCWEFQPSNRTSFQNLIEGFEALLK
Description: as §1, §2
as §3, with “2” for “0.02”, “JAK1” for “JAK2”, “38” for “12”, “90” for “60”
as §4
The reading was converted to an inhibition rate by the following formula: […]. IC50 data were measured by 4-parameter curve fitting (Model 205 in XLFIT5, iDBS). Seen Table 9 for details.

[1] = Technical effect statement on properties of the crystal forms (no method given); assay type: physicochemical
[2] = Stability tests of crystal form A in different solvents (40° C., 2 days, XRPD); assay type: physicochemical; conditions: for Results (crystal form of the solid by XRPD): 40° C., 2 days; for Appearance (2 days): stirred at 40° C. for 2 days
Description: The solids in all samples were collected and dried overnight in a vacuum drying oven (25° C.).

[3] = Solubility tests of crystal form A in different solvents (manual stepwise dilution); assay type: physicochemical; conditions: for solubility: thermodynamic from solid, atmospheric temperature
Description: These solubility tests were carried out by manually stepwise dilution and simultaneous observation of dissolution at atmospheric temperature.

[4] = Solid stability tests of crystal form E under high temperature, high humidity and strong light (XRPD); assay type: physicochemical
Excerpt: The vial in which the samples were placed at high temperature and high humidity was sealed with an aluminum foil, and small holes were formed in the aluminum foil to ensure that the samples were sufficiently contacted with atmospheric air; and the sample placed at strong light radiation was sealed with a threaded cap. The samples placed under different conditions were sampled and tested by XRPD on day 5 and day 10. The test results were compared with the initial test results on day 0.

inhibitory activity against JAK2 (in words) (Recombinant human JAK2): relatively weak inhibitory activity
IC50 (Recombinant human JAK2; 12 uM ATP, 60 minutes, room temperature): 10 to 100 nM
inhibitory activity against JAK1 (in words) (Recombinant human JAK1): strong inhibitory activity
selective inhibition (JAK1 versus JAK2, in words) (Recombinant human JAK1): better selective inhibition for JAK
IC50 (Recombinant human JAK1; 38 uM ATP, 90 minutes, room temperature): ≤ 10 nM
Structure (SMILES): CN(c1ncnc2[nH]ccc12)[C@@H]1CCn2cc(C#N)nc2C1 (single isomer, unassigned) [Compound 1, 7-[methyl-[7-hydropyrrolo[2,3-d]pyrimidin-4-yl]amino]-5,6,7,8-tetrahydroimidazo[1,2-a]pyridin-2-nitrile]

hygroscopicity (in words) [1]: low hygroscopicity
stability (in words) [1]: stable properties
water solubility (in words) [1]: excellent water solubility
Structure (SMILES): CN(c1ncnc2[nH]ccc12)[C@@H]1CCn2cc(C#N)nc2C1.O=C(O)C(F)(F)F [crystal form F of the compound 3]

hygroscopicity (in words) [1]: low hygroscopicity
stability (in words) [1]: stable properties
water solubility (in words) [1]: excellent water solubility
Results (crystal form of the solid by XRPD) ([2]; Acetone-water (1:2)): Crystal form A
Appearance (2 days) ([2]; Acetone-water (1:2)): Suspension
Results (crystal form of the solid by XRPD) ([2]; Acetone): Crystal form A
Appearance (2 days) ([2]; Acetone): Suspension
Results (crystal form of the solid by XRPD) ([2]; Ethanol-water (3:1)): Crystal form A
Appearance (2 days) ([2]; Ethanol-water (3:1)): Suspension
Results (crystal form of the solid by XRPD) ([2]; Ethanol): Crystal form A
Appearance (2 days) ([2]; Ethanol): Suspension
Results (crystal form of the solid by XRPD) ([2]; Ethyl acetate): Crystal form A
Appearance (2 days) ([2]; Ethyl acetate): Suspension
Results (crystal form of the solid by XRPD) ([2]; Isopropanol): Crystal form A
Appearance (2 days) ([2]; Isopropanol): Suspension
Results (crystal form of the solid by XRPD) ([2]; Isopropyl alcohol-water (1:1)): Crystal form A
Appearance (2 days) ([2]; Isopropyl alcohol-water (1:1)): Suspension
Results (crystal form of the solid by XRPD) ([2]; Methanol-water (3:1)): Crystal form A
Appearance (2 days) ([2]; Methanol-water (3:1)): Suspension
Results (crystal form of the solid by XRPD) ([2]; Methanol): Crystal form A
Appearance (2 days) ([2]; Methanol): Suspension
Results (crystal form of the solid by XRPD) ([2]; Tetrahydrofuran): Crystal form A
Appearance (2 days) ([2]; Tetrahydrofuran): Suspension
Solubility conclusion ([3]; 1,4-dioxane): Slightly soluble/very
Solubility conclusion ([3]; 2-methyltetrahydrofuran): Slightly soluble/very
Solubility conclusion ([3]; Acetone): Slightly soluble/very
Solubility conclusion ([3]; Acetone-water (1:2)): Slightly soluble/very
Solubility conclusion ([3]; Acetonitrile): Slightly soluble/very
Solubility conclusion ([3]; Acetonitrile-water (1:1)): Slightly soluble/very
Solubility conclusion ([3]; Cyclohexane): Slightly soluble/very
Solubility conclusion ([3]; Ethanol): Slightly soluble/very
Solubility conclusion ([3]; Ethanol-water (1:1)): Slightly soluble/very
Solubility conclusion ([3]; Ethanol-water (3:1)): Slightly soluble/very
Solubility conclusion ([3]; Ethyl acetate): Slightly soluble/very
Solubility conclusion ([3]; Heptane): Slightly soluble/very
Solubility conclusion ([3]; Isopropanol): Slightly soluble/very
Solubility conclusion ([3]; Isopropyl acetate): Slightly soluble/very
Solubility conclusion ([3]; Isopropyl alcohol-water (1:1)): Slightly soluble/very
Solubility conclusion ([3]; Methanol): Slightly soluble/very
Solubility conclusion ([3]; Methanol-water (1:1)): Slightly soluble/very
Solubility conclusion ([3]; Methanol-water (3:1)): Slightly soluble/very
Solubility conclusion ([3]; Methyl ethyl ketone): Slightly soluble/very
Solubility conclusion ([3]; Methyl isobutyl ketone): Slightly soluble/very
Solubility conclusion ([3]; Methyl tert-butyl ether): Slightly soluble/very
Solubility conclusion ([3]; N-butanol): Slightly soluble/very
Solubility conclusion ([3]; Tetrahydrofuran): Slightly soluble/very
Solubility conclusion ([3]; Toluene): Slightly soluble/very
Solubility conclusion ([3]; Water): Slightly soluble/very
solubility ([3]; aqueous with cosolvent or surfactant or cyclodextrin, Acetone-water (1:2)): < 2000 µg/mL
solubility ([3]; aqueous with cosolvent or surfactant or cyclodextrin, Acetonitrile-water (1:1)): < 2000 µg/mL
solubility ([3]; aqueous with cosolvent or surfactant or cyclodextrin, Ethanol-water (1:1)): < 2000 µg/mL
solubility ([3]; aqueous with cosolvent or surfactant or cyclodextrin, Ethanol-water (3:1)): < 2000 µg/mL
solubility ([3]; aqueous with cosolvent or surfactant or cyclodextrin, Isopropyl alcohol-water (1:1)): < 2000 µg/mL
solubility ([3]; aqueous with cosolvent or surfactant or cyclodextrin, Methanol-water (1:1)): < 2000 µg/mL
solubility ([3]; aqueous with cosolvent or surfactant or cyclodextrin, Methanol-water (3:1)): < 2000 µg/mL
solubility ([3]; organic solvent or mixture, 1,4-dioxane): < 2000 µg/mL
solubility ([3]; organic solvent or mixture, 2-methyltetrahydrofuran): < 2000 µg/mL
solubility ([3]; organic solvent or mixture, Acetone): < 2000 µg/mL
solubility ([3]; organic solvent or mixture, Acetonitrile): < 2000 µg/mL
solubility ([3]; organic solvent or mixture, Cyclohexane): < 2000 µg/mL
solubility ([3]; organic solvent or mixture, Ethanol): < 2000 µg/mL
solubility ([3]; organic solvent or mixture, Ethyl acetate): < 2000 µg/mL
solubility ([3]; organic solvent or mixture, Heptane): < 2000 µg/mL
solubility ([3]; organic solvent or mixture, Isopropanol): < 2000 µg/mL
solubility ([3]; organic solvent or mixture, Isopropyl acetate): < 2000 µg/mL
solubility ([3]; organic solvent or mixture, Methanol): < 2000 µg/mL
solubility ([3]; organic solvent or mixture, Methyl ethyl ketone): < 2000 µg/mL
solubility ([3]; organic solvent or mixture, Methyl isobutyl ketone): < 2000 µg/mL
solubility ([3]; organic solvent or mixture, Methyl tert-butyl ether): < 2000 µg/mL
solubility ([3]; organic solvent or mixture, N-butanol): < 2000 µg/mL
solubility ([3]; organic solvent or mixture, Tetrahydrofuran): < 2000 µg/mL
solubility ([3]; organic solvent or mixture, Toluene): < 2000 µg/mL
solubility ([3]; Water): < 2000 µg/mL
Structure (SMILES): CN(c1ncnc2[nH]ccc12)[C@@H]1CCn2cc(C#N)nc2C1 [Crystal Form A of Compound 1]

XRPD ([4]; High humidity (room temperature/relative humidity 92.5%, open), day 5): Crystal form E
Appearance ([4]; High humidity (room temperature/relative humidity 92.5%, open), day 5 and day 10): White powder
XRPD ([4]; High humidity (room temperature/relative humidity 92.5%, open), day 10): Crystal form E
XRPD ([4]; High temperature (60° C., open), day 5): Crystal form E
Appearance ([4]; High temperature (60° C., open), day 5 and day 10): White powder
XRPD ([4]; High temperature (60° C., open), day 10): Crystal form E
XRPD ([4]; Strong light radiation (5000 lx, close), day 5): Crystal form E
Appearance ([4]; Strong light radiation (5000 lx, close), day 5 and day 10): White powder
XRPD ([4]; Strong light radiation (5000 lx, close), day 10): Crystal form E
Appearance ([4]; day 0 (initial)): White powder
XRPD ([4]; day 0 (initial)): Crystal form E
hygroscopicity (in words) [1]: low hygroscopicity
stability (in words) [1]: stable properties
water solubility (in words) [1]: excellent water solubility
Structure (SMILES): CN(c1ncnc2[nH]ccc12)[C@@H]1CCn2cc(C#N)nc2C1.Cc1ccc(S(=O)(=O)O)cc1 [Crystal Form E of Compound 2]
